Reference: patent publication US20250221971A1, “METHODS OF TREATMENT FOR CYSTIC FIBROSIS” (Vertex Pharmaceuticals Incorporated, priority 2022, published 2025)

What was measured:
[1] = biological target: T1, CFTR in F508del/MF-HBE cells (Homo sapiens, UniProt P13569, DEL508-508); test: Ussing chamber assay of CFTR-mediated short-circuit currents (potentiator identification); format: cell-based; settings: with 10 μM Compound VII, 18-24 hours at 37° C., 20% human serum
T1 construct: human bronchial epithelial (HBE) cells derived from CF subjects heterozygous for F508del and a minimal function CFTR mutation; endogenous in cells; host or cells: primary human bronchial epithelial cells from CF subjects (F508del/MF-HBE)
Procedure: Ussing chamber experiments were performed using human bronchial epithelial (HBE) cells derived from CF subjects heterozygous for F508del and a minimal function CFTR mutation (F508del/MF-HBE) and cultured as previously described (Neuberger T., Burton B., Clark H., Van Goor F. Methods Mol Biol 2011:741:39-54). After four days the apical media was removed, and the cells were grown at an air liquid interface for >14 days prior to use.
To isolate the CFTR-mediated short-circuit (ISC) current, F508del/MF-HBE grown on Costar® Snapwell™ cell culture inserts were mounted in an Ussing chamber and the transepithelial ISC was measured under voltage-clamp recording conditions (Vhold=0 mV) at 37° C. The basolateral solution contained (in mM) 145 NaCl, 0.83 K2HPO4, 3.3 KH2PO4, 1.2 MgCl2, 1.2 CaCl2), 10 Glucose, 10 HEPES (pH adjusted to 7.4 with NaOH) and the apical solution contained (in mM) 145 NaGluconate, 1.2 MgCl2, 1.2 CaCl2), 10 glucose, 10 HEPES (pH adjusted to 7.4 with NaOH) and 30 μM amiloride to block the epithelial sodium channel. […] The CFTR-mediated ISC (μA/cm^2) for each condition was determined from the peak forskolin response to the steady-state current following inhibition.
The activity of the CFTR potentiator compounds on the CFTR-mediated ISC was determined in Ussing chamber studies as described above. […]

[2] = First-in-human clinical study of safety, tolerability and PK in healthy subjects; format: in vivo; settings: all cohorts (Parts A, B, C), single doses 0.6-540 mg, multiple total daily doses 2-315 mg
Procedure: In a first-in-human (FIH) clinical study of Compound I, designed to evaluate the safety, tolerability, and pharmacokinetics (PK) of Compound I in healthy subjects, an assessment of drug-drug interactions (DDIs) between Compound I and itraconazole and midazolam was conducted.
This first-in-human (FIH) study of Compound I included three parts (Parts A, B, and C).
Approximately 154 healthy adult subjects were planned to be enrolled in planned cohorts. Approximately 76 subjects were planned to be enrolled in Part A, approximately 48 subjects in Part B, and approximately 30 subjects in Part C. There was no pre-specified ratio of males to females, but reasonable effort was made to enroll females of non-childbearing potential in all dosing cohorts.
Six dose escalation cohorts each were planned for Parts A and B. Additional cohorts in Part A were enrolled based on data from previous cohorts. In each cohort, approximately eight subjects were randomized 3:1 to receive Compound I or placebo as a suspension, under fasted or fed conditions. Eight subjects were enrolled in food-effect Cohort A9 to receive open-label Compound I; subsequent cohorts were dosed under fed conditions. […]
Food effect was evaluated in open-label, single-sequence Cohort A9 to evaluate the effect of food on the PK of Compound I based on emerging PK data during dose escalation. […]

T1 sequence (P13569 with tags, fused parts or gaps DEL508-508): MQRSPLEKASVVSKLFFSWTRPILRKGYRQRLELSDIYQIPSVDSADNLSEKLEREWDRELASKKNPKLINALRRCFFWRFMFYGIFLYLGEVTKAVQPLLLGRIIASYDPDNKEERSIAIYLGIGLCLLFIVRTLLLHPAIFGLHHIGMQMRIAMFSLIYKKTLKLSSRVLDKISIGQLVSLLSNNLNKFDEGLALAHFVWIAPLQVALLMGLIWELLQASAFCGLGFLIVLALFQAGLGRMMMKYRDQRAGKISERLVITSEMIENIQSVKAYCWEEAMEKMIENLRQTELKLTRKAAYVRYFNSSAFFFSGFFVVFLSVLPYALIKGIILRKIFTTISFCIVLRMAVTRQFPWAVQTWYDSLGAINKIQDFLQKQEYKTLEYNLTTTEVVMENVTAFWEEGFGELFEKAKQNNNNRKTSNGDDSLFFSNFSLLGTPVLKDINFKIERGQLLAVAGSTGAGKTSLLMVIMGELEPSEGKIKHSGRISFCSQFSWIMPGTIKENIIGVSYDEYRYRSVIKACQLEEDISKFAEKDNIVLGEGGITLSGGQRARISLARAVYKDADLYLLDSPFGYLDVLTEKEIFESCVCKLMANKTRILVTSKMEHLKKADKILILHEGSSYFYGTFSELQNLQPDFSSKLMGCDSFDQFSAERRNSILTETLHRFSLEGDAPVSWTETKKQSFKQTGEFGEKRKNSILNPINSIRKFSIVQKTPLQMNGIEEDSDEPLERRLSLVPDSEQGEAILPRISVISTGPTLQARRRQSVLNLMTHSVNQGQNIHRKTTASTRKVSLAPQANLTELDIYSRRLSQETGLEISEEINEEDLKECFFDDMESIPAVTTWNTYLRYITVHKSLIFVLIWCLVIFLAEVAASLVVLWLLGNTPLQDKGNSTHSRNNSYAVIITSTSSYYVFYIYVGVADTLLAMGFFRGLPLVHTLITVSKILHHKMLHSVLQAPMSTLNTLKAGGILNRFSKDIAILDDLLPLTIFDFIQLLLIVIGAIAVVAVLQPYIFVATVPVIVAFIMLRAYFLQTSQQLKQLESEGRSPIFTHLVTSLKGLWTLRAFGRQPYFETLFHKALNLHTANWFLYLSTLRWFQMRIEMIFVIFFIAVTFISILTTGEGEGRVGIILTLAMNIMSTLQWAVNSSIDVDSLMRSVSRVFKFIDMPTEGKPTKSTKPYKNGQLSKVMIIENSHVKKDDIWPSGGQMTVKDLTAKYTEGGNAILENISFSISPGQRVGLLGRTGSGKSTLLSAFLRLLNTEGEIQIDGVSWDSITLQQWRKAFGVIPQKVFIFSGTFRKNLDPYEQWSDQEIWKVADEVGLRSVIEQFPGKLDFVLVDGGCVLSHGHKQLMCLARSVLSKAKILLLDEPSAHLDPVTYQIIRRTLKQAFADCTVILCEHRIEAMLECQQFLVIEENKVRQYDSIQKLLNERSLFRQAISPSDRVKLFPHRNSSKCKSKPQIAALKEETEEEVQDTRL

## C[C@@H]1CCCCC[C@](O)(C(F)(F)F)C2=NN=C(O2)c2nc(c(C(F)(F)F)cc2N)O1 [Compound I, (6R,12R)-17-amino-12-methyl-6,15-bis(trifluoromethyl)-13,19-dioxa-3,4,18-triazatricyclo[12.3.1.12,5]nonadeca-1(18),2,4,14,16-pentaen-6-ol]
[1]
  EC50: < 500 nM
[2]
  safety and tolerability: generally safe and well-tolerated
